Legend:
[1] = target: Serine/threonine-protein kinase 16 (Homo sapiens) (UniProt O75716); test: STK16 Kinase panel; settings: Compound concentration 1.0 uM
[2] = target: Serine/threonine-protein kinase SIK2 (Homo sapiens) (UniProt Q9H0K1); test: SIK2 Kinase panel; settings: Compound concentration 1.0 uM
[3] = target: Interleukin-1 receptor-associated kinase 4 (Homo sapiens) (UniProt Q9NWZ3); test: IRAK4 Kinase panel; settings: Compound concentration 1.0 uM
[4] = target: T1, Tyrosine-protein kinase JAK2 (Homo sapiens, UniProt O60674); test: JAK2 Kinase panel
T1 sequence (O60674 whole entry): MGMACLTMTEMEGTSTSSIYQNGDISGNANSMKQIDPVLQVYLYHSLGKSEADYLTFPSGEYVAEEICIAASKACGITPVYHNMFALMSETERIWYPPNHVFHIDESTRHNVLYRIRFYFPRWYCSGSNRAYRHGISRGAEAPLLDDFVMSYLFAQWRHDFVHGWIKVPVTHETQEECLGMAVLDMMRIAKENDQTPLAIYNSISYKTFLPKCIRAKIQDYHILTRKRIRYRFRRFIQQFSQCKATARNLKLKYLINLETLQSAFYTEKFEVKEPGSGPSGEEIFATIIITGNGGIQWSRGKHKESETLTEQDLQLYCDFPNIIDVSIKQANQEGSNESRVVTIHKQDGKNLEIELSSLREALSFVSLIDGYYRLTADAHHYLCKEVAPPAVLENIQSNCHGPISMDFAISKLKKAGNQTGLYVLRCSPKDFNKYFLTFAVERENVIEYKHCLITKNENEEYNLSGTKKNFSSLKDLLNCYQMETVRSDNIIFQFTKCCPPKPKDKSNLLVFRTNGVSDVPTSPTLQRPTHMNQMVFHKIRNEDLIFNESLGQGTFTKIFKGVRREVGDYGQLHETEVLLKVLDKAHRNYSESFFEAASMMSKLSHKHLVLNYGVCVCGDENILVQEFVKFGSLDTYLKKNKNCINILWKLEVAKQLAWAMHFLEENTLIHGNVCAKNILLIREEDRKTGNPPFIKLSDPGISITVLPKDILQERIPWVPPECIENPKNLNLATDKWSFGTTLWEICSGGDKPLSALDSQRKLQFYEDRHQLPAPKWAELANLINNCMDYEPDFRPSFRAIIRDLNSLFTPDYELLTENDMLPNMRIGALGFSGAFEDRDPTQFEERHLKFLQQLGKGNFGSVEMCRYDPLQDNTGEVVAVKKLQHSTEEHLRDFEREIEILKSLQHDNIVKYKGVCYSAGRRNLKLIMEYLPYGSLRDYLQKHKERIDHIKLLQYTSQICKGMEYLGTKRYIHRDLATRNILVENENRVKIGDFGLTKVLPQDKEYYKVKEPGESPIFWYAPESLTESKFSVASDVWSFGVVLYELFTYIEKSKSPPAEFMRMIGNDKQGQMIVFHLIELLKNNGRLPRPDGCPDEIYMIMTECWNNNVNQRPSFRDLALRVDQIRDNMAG

[5] = target: Serine/threonine-protein kinase Sgk2 (Homo sapiens) (UniProt Q9HBY8); test: SGK2 Kinase panel; settings: Compound concentration 1.0 uM
[6] = target: T1, Tyrosine-protein kinase JAK2; test: NanoBRET assay (JAK2, SGC Frankfurt)
[7] = target: Calcium/calmodulin-dependent protein kinase type II subunit alpha (Homo sapiens) (UniProt Q9UQM7); test: CamKII_alpha Kinase panel; settings: Compound concentration 1.0 uM
[8] = target: MAP kinase-activated protein kinase 5 (Homo sapiens) (UniProt Q8IW41); test: PRAK Kinase panel; settings: Compound concentration 1.0 uM
[9] = target: Serine/threonine-protein kinase MRCK alpha (Homo sapiens) (UniProt Q5VT25); test: MRCK_alpha Kinase panel; settings: Compound concentration 1.0 uM
[10] = target: Serine/threonine-protein kinase N1 (Homo sapiens) (UniProt Q16512); test: PRK1 Kinase panel; settings: Compound concentration 1.0 uM
[11] = target: Serine/threonine-protein kinase 33 (Homo sapiens) (UniProt Q9BYT3); test: STK33 Kinase panel; settings: Compound concentration 1.0 uM
[12] = target: Mitogen-activated protein kinase kinase kinase 20 (Homo sapiens) (UniProt Q9NYL2); test: ZAK Kinase panel; settings: Compound concentration 1.0 uM
[13] = target: Vascular endothelial growth factor receptor 1 (Homo sapiens) (UniProt P17948); test: Flt1 Kinase panel; settings: Compound concentration 1.0 uM
[14] = target: Activated CDC42 kinase 1 (Homo sapiens) (UniProt Q07912); test: TNK2 Kinase panel; settings: Compound concentration 1.0 uM
[15] = target: Tyrosine-protein kinase Tec (Homo sapiens) (UniProt P42680); test: TEC Kinase panel; settings: Compound concentration 1.0 uM
[16] = target: Insulin-like growth factor 1 receptor (Homo sapiens) (UniProt P08069); test: IGF1R Kinase panel; settings: Compound concentration 1.0 uM
[17] = target: Tyrosine-protein kinase JAK1 (Homo sapiens, UniProt P23458); test: JAK1 Kinase panel
Sequence of Tyrosine-protein kinase JAK1 (P23458 whole entry): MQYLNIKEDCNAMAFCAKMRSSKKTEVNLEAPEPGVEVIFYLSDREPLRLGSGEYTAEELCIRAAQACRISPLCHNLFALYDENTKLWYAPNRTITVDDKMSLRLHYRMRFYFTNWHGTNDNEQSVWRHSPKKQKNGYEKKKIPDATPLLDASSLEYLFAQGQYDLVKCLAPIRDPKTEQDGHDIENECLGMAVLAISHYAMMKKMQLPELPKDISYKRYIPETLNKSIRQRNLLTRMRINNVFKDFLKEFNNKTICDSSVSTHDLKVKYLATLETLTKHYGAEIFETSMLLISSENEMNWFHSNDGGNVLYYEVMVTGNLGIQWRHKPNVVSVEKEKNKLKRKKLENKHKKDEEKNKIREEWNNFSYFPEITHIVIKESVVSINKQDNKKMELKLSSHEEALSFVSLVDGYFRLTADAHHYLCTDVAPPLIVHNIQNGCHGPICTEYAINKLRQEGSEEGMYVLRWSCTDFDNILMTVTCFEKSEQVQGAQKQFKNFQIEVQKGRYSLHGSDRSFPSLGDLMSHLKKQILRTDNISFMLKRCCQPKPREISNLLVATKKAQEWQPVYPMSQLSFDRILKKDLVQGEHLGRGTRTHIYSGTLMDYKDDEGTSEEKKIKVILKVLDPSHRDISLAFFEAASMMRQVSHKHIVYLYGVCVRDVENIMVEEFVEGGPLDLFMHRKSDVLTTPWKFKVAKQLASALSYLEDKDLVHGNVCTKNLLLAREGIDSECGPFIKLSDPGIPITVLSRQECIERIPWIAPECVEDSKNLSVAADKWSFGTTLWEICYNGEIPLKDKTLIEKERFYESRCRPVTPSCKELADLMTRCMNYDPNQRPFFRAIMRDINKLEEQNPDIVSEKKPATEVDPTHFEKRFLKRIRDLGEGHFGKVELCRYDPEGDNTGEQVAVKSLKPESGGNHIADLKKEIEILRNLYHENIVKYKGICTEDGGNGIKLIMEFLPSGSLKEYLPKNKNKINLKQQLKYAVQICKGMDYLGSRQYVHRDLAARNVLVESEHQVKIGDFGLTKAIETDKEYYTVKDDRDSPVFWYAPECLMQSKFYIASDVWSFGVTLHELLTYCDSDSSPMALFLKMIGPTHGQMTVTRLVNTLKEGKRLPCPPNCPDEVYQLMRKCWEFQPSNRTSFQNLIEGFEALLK

[18] = target: Death-associated protein kinase 3 (Homo sapiens) (UniProt O43293); test: ZIPK Kinase panel; settings: Compound concentration 1.0 uM
[19] = target: Tyrosine-protein kinase Fes/Fps (Homo sapiens) (UniProt P07332); test: Fes Kinase panel; settings: Compound concentration 1.0 uM
[20] = target: Serine/threonine-protein kinase PLK3 (Homo sapiens) (UniProt Q9H4B4); test: PLK3 Kinase panel; settings: Compound concentration 1.0 uM
[21] = target: Epithelial discoidin domain-containing receptor 1 (Homo sapiens) (UniProt Q08345); test: DDR1 Kinase panel; settings: Compound concentration 1.0 uM
[22] = target: Dual specificity mitogen-activated protein kinase kinase 6 (Homo sapiens) (UniProt P52564); test: MKK6 Kinase panel; settings: Compound concentration 1.0 uM
[23] = target: T2, High affinity nerve growth factor receptor (Homo sapiens, UniProt P04629); test: TrkA Kinase panel
[24] = target: MAP kinase-activated protein kinase 3 (Homo sapiens) (UniProt Q16644); test: MAPKAPK3 Kinase panel; settings: Compound concentration 1.0 uM
[25] = target: Myotonin-protein kinase (Homo sapiens) (UniProt Q09013); test: DMPK Kinase panel; settings: Compound concentration 1.0 uM
[26] = target: D(3) dopamine receptor (Homo sapiens) (UniProt P35462); settings: Compound concentration 10.0 uM
[27] = target: Serine/threonine-protein kinase PLK2 (Homo sapiens) (UniProt Q9NYY3); test: PLK2 Kinase panel; settings: Compound concentration 1.0 uM
[28] = target: Dual specificity protein kinase CLK2 (Homo sapiens) (UniProt P49760); test: CLK2 Kinase panel; settings: Compound concentration 1.0 uM
Sequence of Dual specificity protein kinase CLK2 (Homo sapiens) (P49760 whole entry, looked up): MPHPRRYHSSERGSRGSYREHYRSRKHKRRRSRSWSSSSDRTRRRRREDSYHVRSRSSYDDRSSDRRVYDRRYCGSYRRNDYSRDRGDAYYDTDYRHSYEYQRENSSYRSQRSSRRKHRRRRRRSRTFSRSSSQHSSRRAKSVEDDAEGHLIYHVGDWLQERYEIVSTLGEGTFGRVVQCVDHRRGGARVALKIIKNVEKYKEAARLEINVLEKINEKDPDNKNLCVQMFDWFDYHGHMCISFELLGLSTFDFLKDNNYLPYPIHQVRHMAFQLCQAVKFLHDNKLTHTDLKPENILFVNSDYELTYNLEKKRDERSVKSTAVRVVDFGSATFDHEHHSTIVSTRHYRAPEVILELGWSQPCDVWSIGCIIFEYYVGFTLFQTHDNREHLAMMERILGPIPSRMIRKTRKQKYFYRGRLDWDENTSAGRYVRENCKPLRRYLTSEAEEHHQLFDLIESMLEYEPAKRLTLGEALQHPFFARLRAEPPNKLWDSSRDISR

[29] = target: Protein kinase C alpha type (Homo sapiens) (UniProt P17252); test: PKC_alpha Kinase panel; settings: Compound concentration 1.0 uM
[30] = target: 5-hydroxytryptamine receptor 2A (Homo sapiens) (UniProt P28223); settings: Compound concentration 10.0 uM
[31] = target: Activin receptor type-1 (Homo sapiens) (UniProt Q04771); test: ALK2 Kinase panel; settings: Compound concentration 1.0 uM
[32] = target: 5'-AMP-activated protein kinase catalytic subunit alpha-1 (Homo sapiens) (UniProt Q13131); test: PRKAA1 Kinase panel; settings: Compound concentration 1.0 uM
[33] = target: Proto-oncogene tyrosine-protein kinase ROS (Homo sapiens) (UniProt P08922); test: Ros Kinase panel; settings: Compound concentration 1.0 uM
[34] = target: 5-hydroxytryptamine receptor 2B (Homo sapiens, UniProt P41595); test: GPCRScan assay: inhibition of 5-HT2B; parameters: radioligand conc. used [nm] 1.0 – 2.0, parental cells stable HEK
[35] = target: Death-associated protein kinase 1 (Homo sapiens) (UniProt P53355); test: DAPK1 Kinase panel; settings: Compound concentration 1.0 uM
[36] = target: Dual specificity tyrosine-phosphorylation-regulated kinase 3 (Homo sapiens) (UniProt O43781); test: DYRK3 Kinase panel; settings: Compound concentration 1.0 uM
[37] = target: T2, High affinity nerve growth factor receptor; test: NanoBRET assay (NTRK1v2, SGC Frankfurt)
Target sequence in this assay (P04629 whole entry): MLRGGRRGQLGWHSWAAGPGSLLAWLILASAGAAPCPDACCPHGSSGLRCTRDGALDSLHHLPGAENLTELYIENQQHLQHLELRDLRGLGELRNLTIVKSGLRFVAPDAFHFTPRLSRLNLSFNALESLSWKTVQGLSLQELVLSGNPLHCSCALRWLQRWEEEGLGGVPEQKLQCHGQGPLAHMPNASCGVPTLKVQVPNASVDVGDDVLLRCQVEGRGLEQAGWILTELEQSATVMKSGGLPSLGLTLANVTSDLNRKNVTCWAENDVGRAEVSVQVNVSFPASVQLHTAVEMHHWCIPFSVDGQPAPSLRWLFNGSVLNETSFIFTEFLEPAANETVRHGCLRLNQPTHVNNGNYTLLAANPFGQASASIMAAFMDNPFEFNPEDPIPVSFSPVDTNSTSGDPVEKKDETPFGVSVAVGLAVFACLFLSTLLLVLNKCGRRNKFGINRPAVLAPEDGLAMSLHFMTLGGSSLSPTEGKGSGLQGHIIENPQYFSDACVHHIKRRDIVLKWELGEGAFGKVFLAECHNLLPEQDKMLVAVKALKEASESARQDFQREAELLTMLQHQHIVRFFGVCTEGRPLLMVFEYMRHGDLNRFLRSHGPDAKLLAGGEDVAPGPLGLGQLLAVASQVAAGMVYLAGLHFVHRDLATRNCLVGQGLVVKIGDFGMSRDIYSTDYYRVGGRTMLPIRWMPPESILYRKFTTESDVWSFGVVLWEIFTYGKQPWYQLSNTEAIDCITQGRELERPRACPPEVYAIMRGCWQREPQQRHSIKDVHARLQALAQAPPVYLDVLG

[38] = target: Phosphatidylinositol 4,5-bisphosphate 3-kinase catalytic subunit alpha isoform (Homo sapiens) (UniProt P42336); test: PI3KA Kinase panel; settings: Compound concentration 1.0 uM
[39] = target: cGMP-dependent protein kinase 1 (Homo sapiens) (UniProt Q13976); test: PKG1_alpha Kinase panel; settings: Compound concentration 1.0 uM
[40] = target: Serine/threonine-protein kinase DCLK2 (Homo sapiens) (UniProt Q8N568); test: DCAMKL2 Kinase panel; settings: Compound concentration 1.0 uM
[41] = target: 5-hydroxytryptamine receptor 6 (Homo sapiens) (UniProt P50406); settings: Compound concentration 10.0 uM
[42] = target: Serine/threonine-protein kinase pim-1 (Homo sapiens) (UniProt P11309); test: PIM1 Kinase panel; settings: Compound concentration 1.0 uM
[43] = target: Vascular endothelial growth factor receptor 2 (Homo sapiens) (UniProt P35968); test: KDR Kinase panel; settings: Compound concentration 1.0 uM
[44] = target: DNA-dependent protein kinase catalytic subunit (Homo sapiens) (UniProt P78527); test: DNA_PK Kinase panel; settings: Compound concentration 1.0 uM
[45] = target: Sodium-dependent dopamine transporter (Homo sapiens) (UniProt Q01959); settings: Compound concentration 10.0 uM
[46] = target: Tyrosine-protein kinase TXK (Homo sapiens) (UniProt P42681); test: TXK Kinase panel; settings: Compound concentration 1.0 uM
[47] = target: Receptor-interacting serine/threonine-protein kinase 2 (Homo sapiens) (UniProt O43353); test: RIPK2 Kinase panel; settings: Compound concentration 1.0 uM
[48] = target: Non-receptor tyrosine-protein kinase TYK2 (Homo sapiens) (UniProt P29597); test: TYK2 Kinase panel; settings: Compound concentration 1.0 uM
[49] = target: Serine/threonine-protein kinase Nek4 (Homo sapiens) (UniProt P51957); test: NEK4 Kinase panel; settings: Compound concentration 1.0 uM
Homo sapiens = organism: Homo sapiens; test: PKA Kinase panel; settings: Compound concentration 1.0 uM
[50] = target: Protein kinase C zeta type (Homo sapiens) (UniProt Q05513); test: PKC_zeta Kinase panel; settings: Compound concentration 1.0 uM
Sequence of Protein kinase C zeta type (Homo sapiens) (Q05513 whole entry): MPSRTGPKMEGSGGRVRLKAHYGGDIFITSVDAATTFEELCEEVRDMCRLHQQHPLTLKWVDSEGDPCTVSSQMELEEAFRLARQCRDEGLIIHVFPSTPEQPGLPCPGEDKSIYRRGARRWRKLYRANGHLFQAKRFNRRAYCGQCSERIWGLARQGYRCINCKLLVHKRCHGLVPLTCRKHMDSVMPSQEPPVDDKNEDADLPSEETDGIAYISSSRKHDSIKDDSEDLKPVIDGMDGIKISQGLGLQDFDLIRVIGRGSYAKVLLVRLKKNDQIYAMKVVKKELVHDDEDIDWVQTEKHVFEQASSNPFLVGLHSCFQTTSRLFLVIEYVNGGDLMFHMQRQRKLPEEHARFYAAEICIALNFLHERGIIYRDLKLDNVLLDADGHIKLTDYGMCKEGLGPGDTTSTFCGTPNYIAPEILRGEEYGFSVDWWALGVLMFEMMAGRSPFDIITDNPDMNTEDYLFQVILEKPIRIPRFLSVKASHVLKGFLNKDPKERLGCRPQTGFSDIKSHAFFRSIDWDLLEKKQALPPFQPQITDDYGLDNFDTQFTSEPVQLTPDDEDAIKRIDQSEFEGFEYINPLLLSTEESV

[51] = target: Insulin receptor-related protein (Homo sapiens) (UniProt P14616); test: IRR Kinase panel; settings: Compound concentration 1.0 uM
[52] = target: Mu-type opioid receptor (Homo sapiens) (UniProt P35372); settings: Compound concentration 10.0 uM
[53] = target: MAP kinase-activated protein kinase 2 (Homo sapiens) (UniProt P49137); test: MAPKAPK2 Kinase panel; settings: Compound concentration 1.0 uM

Sequence of Serine/threonine-protein kinase SIK2 (Homo sapiens) (Q9H0K1 whole entry, looked up): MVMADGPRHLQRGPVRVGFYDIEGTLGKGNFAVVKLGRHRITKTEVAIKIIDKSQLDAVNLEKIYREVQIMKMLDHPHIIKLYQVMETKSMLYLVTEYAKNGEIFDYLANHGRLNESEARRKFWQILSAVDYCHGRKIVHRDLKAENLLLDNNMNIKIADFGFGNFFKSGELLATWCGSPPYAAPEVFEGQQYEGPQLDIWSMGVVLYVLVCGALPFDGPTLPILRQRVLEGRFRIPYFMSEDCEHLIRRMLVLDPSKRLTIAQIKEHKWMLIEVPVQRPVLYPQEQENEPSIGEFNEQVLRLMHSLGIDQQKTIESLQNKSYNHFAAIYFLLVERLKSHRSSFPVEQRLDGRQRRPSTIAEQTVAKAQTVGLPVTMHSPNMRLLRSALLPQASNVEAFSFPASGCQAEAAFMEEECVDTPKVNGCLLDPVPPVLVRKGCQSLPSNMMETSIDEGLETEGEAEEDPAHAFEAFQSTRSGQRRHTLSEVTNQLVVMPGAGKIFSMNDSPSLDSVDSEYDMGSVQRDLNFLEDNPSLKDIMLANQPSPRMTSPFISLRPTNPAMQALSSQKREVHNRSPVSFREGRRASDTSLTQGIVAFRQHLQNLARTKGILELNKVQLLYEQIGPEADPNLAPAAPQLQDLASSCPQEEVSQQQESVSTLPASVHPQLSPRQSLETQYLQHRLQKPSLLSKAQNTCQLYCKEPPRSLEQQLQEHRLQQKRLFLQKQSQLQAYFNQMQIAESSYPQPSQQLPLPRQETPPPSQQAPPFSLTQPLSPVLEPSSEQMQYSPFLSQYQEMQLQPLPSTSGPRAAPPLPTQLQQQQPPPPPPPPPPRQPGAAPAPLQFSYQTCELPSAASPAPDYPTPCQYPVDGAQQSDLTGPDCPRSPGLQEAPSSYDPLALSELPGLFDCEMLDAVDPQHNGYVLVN

With `CC(C)(O)[C@H](F)CN1Cc2cc(NC(=O)c3cnn4cccnc34)c(N3CCOCC3)cc2C1=O` the inhibition [1] was 15%, the inhibition [2] was 12% and the inhibition [3] was 101%. For the same compound, the IC50 [4] was 486 nM, the inhibition ([4]; Compound concentration 1.0 uM) was 80.5% and the inhibition [5] was 5.5%. The EC50 [6] was > 50000 nM (not active), the inhibition [7] was 2.5% and the inhibition [8] was -3.5%. For the same compound, the inhibition [9] was 1.5%, the inhibition [10] was 0.5% and the inhibition [11] was 3.5%. It also gave an inhibition [12] of 5.5%, an inhibition [13] of -1% and an inhibition [14] of 37.5%. The inhibition [15] was 0.5%, the inhibition [16] was 11.5% and the IC50 [17] was 282 nM. For the same compound, the inhibition ([17]; Compound concentration 1.0 uM) was 83.5%, the inhibition [18] was 3.5% and the inhibition [19] was 19%. It also gave an inhibition [20] of -3%, an inhibition [21] of -2% and an inhibition [22] of -5.5%. The IC50 [23] was 313 nM, the inhibition ([23]; Compound concentration 1.0 uM) was 71% and the inhibition [24] was 6%. The inhibition [25] was 2.1%, the inhibition [26] was -1.84% and the inhibition [27] was -3.5%. It also gave an inhibition [28] of 20.3%, an inhibition [29] of 11% and an inhibition [30] of -7.43%. It also gave an inhibition [31] of 8%, an inhibition [32] of 5.5% and an inhibition [33] of 38.5%. It also gave a Ki [34] of 509 nM, an inhibition [35] of 5.5% and an inhibition [36] of 2%. For the same compound, the EC50 [37] was 11000 nM (not active), the inhibition [38] was 21.5% and the inhibition [39] was 1%. It also gave an inhibition [40] of 0.5%, an inhibition [41] of 7.46% and an inhibition [42] of 1.5%. The inhibition [43] was 17%, the inhibition [44] was 9% and the inhibition [45] was 20%. For the same compound, the inhibition [46] was 34%, the inhibition [47] was 22.5% and the inhibition [48] was 53.5%. The inhibition [49] was 10%, the inhibition (Homo sapiens) was 5% and the inhibition [50] was 6%. The inhibition [51] was 18%, the inhibition [52] was 6.2% and the inhibition [53] was 9.5%.

From ChEMBL document CHEMBL4879554, “Data for DCP probe GNE-2256” (2021)
